Series [1] deals with SW620 colon adenocarcinoma cells (wild-type B-RAF). The series is described as follows: SW620 cell growth inhibition (ATPlite). Format: cell-based. Conditions: Homo sapiens, SW-620, 72 h; SW620, 3 days incubation. A digest of the protocol: (§1)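 Cells plated overnight, then exposed 3 days at 37° C to 8-point 1:3 compound dilutions topping at 10 μM final. Viability read as ATPlite luminescence, proportional to cell number; IC50 from luminescence versus concentration.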

Series [2] has as its system COLO205 colon adenocarcinoma cells (B-Raf V600E). Nature of the series: COLO205 cell growth inhibition (ATPlite). Format: cell-based. Conditions: Homo sapiens, COLO 205, 72 h; COLO205, 3 days incubation. Put shortly:
as §1
(In general: Cellular ATP, detected with luciferase, serves as a proxy for viable cell number.)

Series [3] deals with SKMEL2 melanoma cells (Ras mutation). Nature of the series: SKMEL2 cell growth inhibition (ATPlite). Format: cell-based. Conditions: Homo sapiens, SK-MEL-2, 72 h; SKMEL2, 3 days incubation. A digest of the protocol: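 SKMEL2 cells seeded at 2,000 per well overnight, then exposed to an 8-point 1:3 compound titration (top 10 μM final) for 3 days at 37 °C. ATPlite luminescence used as a measure of cell number to derive IC50.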

The next series concerns the target T1, CYP1A2 (Homo sapiens, UniProt P05177).
T1 sequence (P05177 1-516): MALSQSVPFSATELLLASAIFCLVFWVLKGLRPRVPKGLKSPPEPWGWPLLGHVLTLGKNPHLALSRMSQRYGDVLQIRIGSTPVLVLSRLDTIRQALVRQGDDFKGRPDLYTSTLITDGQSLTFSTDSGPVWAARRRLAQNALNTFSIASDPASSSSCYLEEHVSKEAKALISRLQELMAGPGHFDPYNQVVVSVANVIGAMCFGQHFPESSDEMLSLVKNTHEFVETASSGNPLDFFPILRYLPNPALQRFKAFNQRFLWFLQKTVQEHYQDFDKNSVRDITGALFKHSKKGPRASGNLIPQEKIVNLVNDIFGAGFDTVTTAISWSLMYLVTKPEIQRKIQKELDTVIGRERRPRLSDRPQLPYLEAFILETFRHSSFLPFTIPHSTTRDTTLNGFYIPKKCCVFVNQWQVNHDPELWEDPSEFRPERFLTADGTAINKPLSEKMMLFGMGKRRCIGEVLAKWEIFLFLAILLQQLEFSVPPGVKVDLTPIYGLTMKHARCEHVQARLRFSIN
The series is described as follows: CYP1A2 inhibition (fluorescent substrate). It counts as in vitro ADME. Conditions: CYP1A2, CEC substrate; read-out: Cyp IC50 1A2. Put shortly: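 Human CYP activity was followed by the fluorescence of the metabolized product of a known substrate, which falls as metabolism is inhibited. Compounds from 100 mM DMSO stocks were serially diluted 1:1 over 10 points in co-factor mix and preincubated 10 min at 37 °C. IC50 was fitted from signal versus concentration.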

One may read the IC50 as the point on the concentration scale where inhibition reaches its midpoint. Take `CCCS(=O)(=O)Nc1ccc(F)c(C(=O)c2c[nH]c3ncc(-c4ccc(S(=O)(=O)CC)cc4)cc23)c1F` [P-2218, Propane-1-sulfonic acid {3-[5-(4-ethanesulfonyl-phenyl)-1H-pyrrolo[2,3-b]pyridine-3-carbonyl]-2,4-difluoro-phenyl}-amide]: the IC50 was < 20 µM in series [1], < 0.1 µM in series [2], > 10 µM in series [3] and > 10 µM on CYP1A2.
`CCCS(=O)(=O)Nc1ccc(F)c(C(=O)c2c[nH]c3ncc(-c4cnc(N5CCCC5)nc4)cc23)c1F` [P-2219, Propane-1-sulfonic acid {2,4-difluoro-3-[5-(2-pyrrolidin-1-yl-pyrimidin-5-yl)-1H-pyrrolo[2,3-b]pyridine-3-carbonyl]-phenyl}-amide]: the IC50 in series [1] was > 10 µM; in series [2], < 0.1 µM; in series [3], > 10 µM; on CYP1A2, > 10 µM.
With `CCCS(=O)(=O)Nc1ccc(F)c(C(=O)c2c[nH]c3ncc(C#CCOC)cc23)c1F` [P-2239, Propane-1-sulfonic acid {2,4-difluoro-3-[5-(3-methoxy-prop-1-ynyl)-1H-pyrrolo[2,3-b]pyridine-3-carbonyl]-phenyl}-amide], the IC50 in series [1] was > 10 µM; in series [2] it was < 1 µM; in series [3], < 20 µM; at CYP1A2, > 10 µM.
For `CCCS(=O)(=O)Nc1cccc(C(=O)c2c[nH]c3ncc(-c4cnc(OC)nc4)cc23)c1F` [P-2407, Propane-1-sulfonic acid {2-fluoro-3-[5-(2-methoxy-pyrimidin-5-yl)-1H-pyrrolo[2,3-b]pyridine-3-carbonyl]-phenyl}-amide], the IC50 was > 10 µM in series [1], < 1 µM in series [2], < 20 µM in series [3] and > 10 µM at CYP1A2.

Source of the values: patent publication US8198273B2, “Compounds and methods for kinase modulation, and indications therefor” (Plexxikon Inc., priority 2009, dated 2012).
